Results: patent publication US20160022168A1, “BRAIN STATE DEPENDENT THERAPY FOR IMPROVED NEURAL TRAINING AND REHABILITATION” (UNIVERSITY OF LETHBRIDGE, priority 2014, published 2016)

How the values were obtained:
[1] = system: primary somatosensory cortex (S1); test: Population recordings in primary somatosensory cortex (S1) before, during and after tactile stimulation in urethane-anesthetised rats; format: in vivo, Long Evans rats; settings: for firing rate reactivation (explained variance) during the stimulation period: 1 sec intervals of spontaneous activity, FIG. 4C; for Euclidian distance between firing rate correlation matrices, evoked vs following spontaneous compared with evoked vs preceding spontaneous: FIG. 4B, paired t-test; for mean corr. coef. change of latency correlation (spontaneous vs evoked) after tactile stimulation: latency from cross-correlogram with MUA, FIG. 2E; for mean corr. coef. change of latency correlation (spontaneous vs evoked) after tactile stimulation / mean corr. coef. change of latency correlation from pairwise correlograms: mean ± SEM; for mean corr. coef. change of latency correlation from pairwise correlograms: pair-wise cross-correlograms, FIG. 2E white bars; for latency correlation after vs before stimulation (averaged values): t-test
Experimental: (§1) Rats were then placed in a stereotaxic frame, and a window in the skull was prepared over primary somatosensory cortex (S1) hindlimb area (AP −1 mm; ML 2 mm; DV 1.5 mm) For auditory experiments, 8 Long Evans rats (250-350 g) were anesthetised with urethane (1.5 g/kg IP) and placed in a nasal restraint that left the ears free. A window in the skull (2×3 mm) was prepared over the primary auditory cortex. For all recordings, Applicant used silicon probes consisting of eight shanks (200 μm shank separation); each shank had 4 recording sites in a tetrode configuration (20 μm separation between sites, 160 μm^2 site area; 1-3 MOhm impedance; NeuroNexus Technologies).
The time course of the experimental protocol is illustrated in FIG. 1A and FIG. 1B. […] Each recording period consisted of 10 min of spontaneous activity, followed by 20 minutes of tactile stimulation, and then another 10 min of spontaneous activity. The tactile stimulation consisted of 600 repetitions of 1 second stimulation at 20 Hz followed by 1 second without stimulation. The tactile stimulator consisted of a plastic rod attached at one end to a membrane of a speaker controlled by a computer. The other end of the rod was placed in contact with left hind limb.
In order to quantify temporal relations among neurons, Applicant calculated the mean spike latency as described previously. Briefly, for each neuron, latency is defined as the center of mass of a cross-correlogram of that neuron with the summed activity of all other simultaneously recorded cells (MUA), within a time window of 100 ms (FIG. 2A). Before calculating the center of mass, cross-correlograms were smoothed with a Gaussian kernel with SD=5 ms and normalized between 0 and 1 to discard effects of baseline activity. Thus this measure estimates the time when the corresponding neuron is most likely to fire with respect to the population activity. In addition to analysis of cross-correlograms between single neurons and multiunit activity as described above, Applicant also calculated latency from pair-wise cross-correlograms to look at temporal relations between neurons in more detail (FIG. 2E white bars).
Extracellular signals were high-pass filtered (0.1 Hz) and amplified (1,000 times) using a 64-channel amplifier (Neuralynx). Signals were then digitized at 32 kHz. Units were identified and isolated by a semiautomatic cluster cutting algorithm (available at: klustakwik.sourceforge.net), followed by manual clustering (MClust).
To ensure that our results are not affected by differences in firing rates among animals, Applicant down sampled the multi-unit activity of all animals to match the number of spikes in the sample with the lowest firing rate. […]
For this analysis Applicant only included neurons with a firing rate above 0.6 Hz.

auditory cortex = test: Population recordings in auditory cortex (A1) before, during and after tone stimulation in urethane-anesthetised rats; format: in vivo, Long Evans rats; settings: for brain state in auditory cortex: urethane-anesthetised rats, carbachol infused into posterior hypothalamic nucleus, amphetamine 1 mg/kg IP, MK801 0.1 mg/kg i.p.
Experimental: as §1
To ensure that our results are not affected by differences in firing rates among animals, Applicant down sampled the multi-unit activity of all animals to match the number of spikes in the sample with the lowest firing rate.

d-Methamphetamine HCl
firing rate reactivation (explained variance) during the stimulation period ([1]; S1): significant firing rate reactivation | Euclidian distance between firing rate correlation matrices, evoked vs following spontaneous compared with evoked vs preceding spontaneous ([1]; S1): smaller | mean slope of latency correlation after stimulation ceased ([1]; S1, after stimulation FIG. 2G, ± SD): −0.07±0.08 | mean slope of latency correlation, pre-stimulus spontaneous periods ([1]; S1, first three points FIG. 2G, ± SD): −0.01±0.1 | mean corr. coef. change of latency correlation (spontaneous vs evoked) after tactile stimulation ([1]; S1): 0.31±0.062 | mean corr. coef. change of latency correlation from pairwise correlograms ([1]; S1): 0.098±0.023 | latency correlation after vs before stimulation (averaged values) ([1]; S1): significantly higher after stimulation | mean slope of latency correlation during stimulation ([1]; S1, three points during stimulation FIG. 2G, ± SD): 0.11±0.12 | duration of desynchronized state after injection ([1]; urethane-anesthetised rats, amphetamine 1 mg/kg): at least 30 minutes

C[N+](C)(C)CCOC(N)=O [carbachol]
brain state in auditory cortex (auditory cortex): desynchronization of the brain state

C[C@]12N[C@H](Cc3ccccc31)c1ccccc12 [MK801]
replay activity (reverberation of stimulus-evoked patterns) (auditory cortex; after NMDA receptor antagonist application): suppressed

CCOC(N)=O [urethane]
firing rate reactivation (explained variance) during the stimulation period ([1]; S1): significant firing rate reactivation | Euclidian distance between firing rate correlation matrices, evoked vs following spontaneous compared with evoked vs preceding spontaneous ([1]; S1): non-significant increase in similarity | mean corr. coef. change of latency correlation (spontaneous vs evoked) after tactile stimulation ([1]; S1): −0.03±0.06 | mean corr. coef. change of latency correlation from pairwise correlograms ([1]; S1): 0.049±0.025 | latency correlation after vs before stimulation (averaged values) ([1]; S1): not significantly different | brain state (cortical activity, LFP and unit activity) in S1 ([1]; urethane 1.5 g/kg IP, amphetamine 1 mg/kg injected in addition): synchronized state | brain state in auditory cortex (auditory cortex): synchronized brain state
